This is an account of results in US20240366598A1, “GLUCOSE-DEPENDENT INSULINOTROPIC POLYPEPTIDE RECEPTOR ANTAGONISTS AND USES THEREOF” (Pfizer Inc., priority 2023, published 2024).

The target of the assay is T1, human Glucose-dependent Insulinotropic Polypeptide Receptor (hGIPR) (Homo sapiens, UniProt P48546).
T1 sequence (P48546 22-466): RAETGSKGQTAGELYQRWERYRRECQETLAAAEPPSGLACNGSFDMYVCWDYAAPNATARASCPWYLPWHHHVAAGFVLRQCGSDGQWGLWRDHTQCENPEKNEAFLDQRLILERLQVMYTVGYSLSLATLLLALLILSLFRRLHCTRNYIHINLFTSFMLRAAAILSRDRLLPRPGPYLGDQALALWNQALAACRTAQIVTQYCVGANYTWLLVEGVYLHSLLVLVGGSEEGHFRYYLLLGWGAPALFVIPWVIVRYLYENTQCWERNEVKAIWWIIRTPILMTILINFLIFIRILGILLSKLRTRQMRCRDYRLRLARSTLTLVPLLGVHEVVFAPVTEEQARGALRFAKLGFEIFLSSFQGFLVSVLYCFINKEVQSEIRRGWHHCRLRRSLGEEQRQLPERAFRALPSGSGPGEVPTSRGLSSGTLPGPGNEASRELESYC
As to the kind of experiment: Functional in vitro GIPR antagonist potency assay (cAMP HTRF, CHO-K1 cells stably expressing hGIPR, hGIP stimulation at about EC80). It is filed as cell-based. Particulars: geometric mean, hGIP at estimated EC80, examples marked ^2: overall geometric mean of multiple forms (including salts) tested. A digest of the protocol: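 HTRF quantification of cAMP after stimulation with hGIP at an estimated EC80 for 30 min at 37 °C. Before stimulation, hGIPR-expressing CHO-K1 cells were exposed 2 h to test compound in IBMX-containing buffer, with 0.5% DMSO final. Percent effect is referenced to agonist alone (0%) and to 80 μM of a reference antagonist (100%), and runs required the agonist concentration to fall within the on-the-day EC50–EC90.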
Consider `Cc1cc(NC(=O)N2CCC[C@@H]2C(=O)Nc2ccc(-c3cccc(C(=O)O)c3)cn2)ccc1C(C)C` [Example 183, 3-{6-[(1-{[3-methyl-4-(propan-2-yl)phenyl]carbamoyl}-D-prolyl)amino]pyridin-3-yl}benzoic acid], for which the IC50 (in general, the concentration that gives 50% inhibition) was 9.3 nM.

In the case of `Cc1cc(NC(=O)N2CCC[C@@H]2C(=O)Nc2ccc(-c3cccc(C(=O)O)c3)cn2)ncc1C(C)C` [Example 184, 3-{6-[(1-{[4-methyl-5-(propan-2-yl)pyridin-2-yl]carbamoyl}-D-prolyl)amino]pyridin-3-yl}benzoic acid], the IC50 is 43 nM.

With `Cc1cc(-c2ccc(NC(=O)[C@H]3CCCN3C(=O)Nc3ccc(C(C)C)c(C)c3)nc2)ccc1C(=O)O` [Example 185, 2-methyl-4-{6-[(1-{[3-methyl-4-(propan-2-yl)phenyl]carbamoyl}-D-prolyl)amino]pyridin-3-yl}benzoic acid], the IC50 was 4.2 nM.

As to `Cc1cc(NC(=O)N2CCC[C@@H]2C(=O)Nc2ccc(-c3ccc(C(=O)O)c(F)c3)cn2)ccc1C(F)(F)F` [Example 186, 2-fluoro-4-{6-[(1-{[3-methyl-4-(trifluoromethyl)phenyl]carbamoyl}-D-prolyl)amino]pyridin-3-yl}benzoic acid], the IC50 is 36 nM.

With `Cc1cc(NC(=O)N2CCC[C@@H]2C(=O)Nc2ccc(-c3ccc(C(=O)O)c(F)c3)cn2)ccc1C(C)C` [Example 187, 2-fluoro-4-{6-[(1-{[3-methyl-4-(propan-2-yl)phenyl]carbamoyl}-D-prolyl)amino]pyridin-3-yl}benzoic acid], the IC50 is 51 nM.

Turning to `O=C(O)c1cccc(-c2ccc(NC(=O)[C@H]3CCCN3C(=O)Nc3ccc(Cl)c(C(F)(F)F)c3)nc2)c1` [Example 188, 3-{6-[(1-{[4-chloro-3-(trifluoromethyl)phenyl]carbamoyl}-D-prolyl)amino]pyridin-3-yl}benzoic acid], the IC50 was 32 nM.

In the case of `CC(C)c1ccc(CNC(=O)N2CCC[C@@H]2C(=O)Nc2ccc(-c3ccc(C(=O)O)c(F)c3)cn2)cc1` [Example 189, 2-fluoro-4-(6-{[1-({[4-(propan-2-yl)phenyl]methyl}carbamoyl)-D-prolyl]amino}pyridin-3-yl)benzoic acid], the IC50 is 42 nM.

As for `Cc1cc(-c2ccc(NC(=O)[C@H]3CCCN3C(=O)NCc3ccc(C(F)(F)F)c(F)c3)nc2)ccc1C(=O)O` [Example 190, 4-(6-{[1-({[3-fluoro-4-(trifluoromethyl)phenyl]methyl}carbamoyl)-D-prolyl]amino}pyridin-3-yl)-2-methylbenzoic acid], the IC50 is 9.9 nM.

As to `Cc1cc(-c2ccc(NC(=O)[C@H]3CCCN3C(=O)NCc3ccc(C(C)C)cc3)nc2)ccc1C(=O)O` [Example 191, 2-methyl-4-(6-{[1-{{[4-(propan-2-yl)phenyl]methyl}carbamoyl)-D-prolyl]amino}pyridin-3-yl)benzoic acid], the IC50 is 14 nM.

Regarding `Cc1cc(-c2ccc(NC(=O)[C@H]3CCCN3C(=O)NCc3ccc(C(F)(F)F)cc3)nc2)ccc1C(=O)O` [Example 192, 2-methyl-4-(6-{[1-({[4-(trifluoromethyl)phenyl]methyl}carbamoyl)-D-prolyl]amino}pyridin-3-yl)benzoic acid], the IC50 is 12 nM.

As for `O=C(O)c1ccc(-c2ncc(NC(=O)[C@H]3CCCN3C(=O)Nc3ccc(C(F)(F)F)cc3)cc2F)cc1` [Example 193, 4-{3-fluoro-5-[(1-{[4-(trifluoromethyl)phenyl]carbamoyl}-D-prolyl)amino]pyridin-2-yl}benzoic acid], the IC50 is 17 nM.

For `CC(C)c1ccc(NC(=O)N2CCC[C@@H]2C(=O)Nc2ccc(-c3ccc(C(=O)O)cc3)nc2)cc1F` [Example 194, 4-{5-[(1-{[3-fluoro-4-(propan-2-yl)phenyl]carbamoyl}-D-prolyl)amino]pyridin-2-yl}benzoic acid], the IC50 was 14 nM.

As for `O=C(O)c1ccc(-c2ccc(NC(=O)[C@H]3CCCN3C(=O)NCc3ccc(C(F)(F)F)cc3)cc2)cn1` [Example 195, 5-(4-{[1-({[4-(trifluoromethyl)phenyl]methyl}carbamoyl)-D-prolyl]amino}phenyl)pyridine-2-carboxylic acid], the IC50 is 35 nM.

In the case of `O=C(O)c1ccc(-c2ccc(NC(=O)[C@H]3CCCN3C(=O)Nc3ccc(C(F)(F)F)cc3)cc2)cn1` [Example 196, 5-{4-[(1-{[4-(trifluoromethyl)phenyl]carbamoyl}-D-prolyl)amino]phenyl}pyridine-2-carboxylic acid], the IC50 was 49 nM.

Turning to `O=C(O)c1ccc(-c2ccc(NC(=O)[C@H]3CCCN3C(=O)Nc3ccc(C4(C(F)(F)F)CC4)cc3)cc2)cn1` [Example 197, 5-(4-{[1-({4-[1-(trifluoromethyl)cyclopropyl]phenyl}carbamoyl)-D-prolyl]amino}phenyl)pyridine-2-carboxylic acid], the IC50 is 29 nM.

For the compound `Cc1cc(NC(=O)N2CCC[C@@H]2C(=O)Nc2ccc(-c3ccc(C(=O)O)cc3)nc2)ncc1C(C)C` [Example 198, 4-{5-[(1-{[4-methyl-5-(propan-2-yl)pyridin-2-yl]carbamoyl}-D-prolyl)amino]pyridin-2-yl}benzoic acid], the IC50 was 69 nM.

Turning to `CC(C)c1ccc(NC(=O)N2CCC[C@@H]2C(=O)Nc2ccc(-c3ccc(C(=O)O)c(F)c3)cn2)cc1` [Example 199, 2-fluoro-4-{6-[(1-{[4-(propan-2-yl)phenyl]carbamoyl}-D-prolyl)amino]pyridin-3-yl}benzoic acid], the IC50 was 71 nM.

Consider `Cc1cc(-c2ccc(NC(=O)[C@H]3CCCN3C(=O)Nc3ccc(C(C)C)cc3)nc2)ccc1C(=O)O` [Example 200, 2-methyl-4-{6-[(1-{[4-(propan-2-yl)phenyl]carbamoyl}-D-prolyl)amino]pyridin-3-yl}benzoic acid], for which the IC50 was 9.9 nM.

`Cc1cc(NC(=O)N2CCC[C@@H]2C(=O)Nc2ccc(-c3ccc(C(=O)O)nc3)cn2)ccc1C(C)C` [Example 201, ammonium 6′-[(1-{[3-methyl-4-(propan-2-yl)phenyl]carbamoyl}-D-prolyl)amino][3,3′-bipyridine]-6-carboxylate]: the IC50 is 91 nM.

`Cc1cc(NC(=O)N2CCC[C@@H]2C(=O)Nc2ccc(-c3cccc(C(=O)O)c3)cn2)ncc1C(F)(F)F` [Example 202, 3-{6-[(1-{[4-methyl-5-(trifluoromethyl)pyridin-2-yl]carbamoyl}-D-prolyl)amino]pyridin-3-yl}benzoic acid]: the IC50 was 22 nM.

For `Cc1cc(NC(=O)N2CCC[C@@H]2C(=O)Nc2ccc(-c3ccc(C(=O)O)cc3)cc2)ncc1C(F)(F)F` [Example 203, 4′-[(1-{[4-methyl-5-(trifluoromethyl)pyridin-2-yl]carbamoyl}-D-prolyl)amino][1,1′-biphenyl]-4-carboxylic acid], the concentration for half-maximal inhibition (IC50) was 8.4 nM.

Consider `O=C(O)c1ccc(-c2ccc(NC(=O)[C@H]3CCCN3C(=O)Nc3ccc(C(F)(F)F)cc3)cc2)cc1F` [Example 204, 3-fluoro-4′-[(1-{[4-(trifluoromethyl)phenyl]carbamoyl}-D-prolyl)amino][1,1′-biphenyl]-4-carboxylic acid], for which the IC50 is 14 nM.

With `Cc1nc(C(=O)O)ccc1-c1ccc(NC(=O)[C@H]2CCCN2C(=O)NCc2ccc(C(C)C)cc2)cc1` [Example 205, 6-methyl-5-(4-{[1-({[4-(propan-2-yl)phenyl]methyl}carbamoyl)-D-prolyl]amino}phenyl)pyridine-2-carboxylic acid], the IC50 was 14 nM.

As for `Cc1nc(C(=O)O)ccc1-c1ccc(NC(=O)[C@H]2CCCN2C(=O)NCc2ccc(C(F)(F)F)cc2)cc1` [Example 206, 6-methyl-5-(4-{[1-{{[4-(trifluoromethyl)phenyl]methyl}carbamoyl)-D-prolyl]amino}phenyl)pyridine-2-carboxylic acid], the IC50 was 14 nM.

`CC(C)c1ccc(NC(=O)N2CCC[C@@H]2C(=O)Nc2ccc(-c3ccc(C(=O)O)cc3)cn2)cc1F` [Example 207, 4-{6-[(1-{[3-fluoro-4-(propan-2-yl)phenyl]carbamoyl}-D-prolyl)amino]pyridin-3-yl}benzoic acid]: the IC50 is 1.3 nM.

`CC(C)c1ccc(NC(=O)N2CCC[C@@H]2C(=O)Nc2ccc(-c3ccc(C(=O)O)nc3)cc2)cc1F` [Example 208, 5-{4-[(1-{[3-fluoro-4-(propan-2-yl)phenyl]carbamoyl}-D-prolyl)amino]phenyl}pyridine-2-carboxylic acid]: the IC50 was 4.9 nM.

As for `Cc1cc(-c2ccc(NC(=O)[C@H]3CCCN3C(=O)Nc3ccc(C(F)(F)F)cc3)cc2)ccc1C(=O)O` [Example 209, 3-methyl-4′-[(1-{[4-(trifluoromethyl)phenyl]carbamoyl}-D-prolyl)amino][1,1′-biphenyl]-4-carboxylic acid], the IC50 was 7.4 nM.

As for `O=C(O)c1ccc(-c2ccc(NC(=O)[C@H]3CCCN3C(=O)Nc3ccc(C4CCC4)cc3)nc2)cc1` [Example 210, 4-[6-({1-[(4-cyclobutylphenyl)carbamoyl]-D-prolyl}amino)pyridin-3-yl]benzoic acid], the half-inhibitory concentration (IC50) is 9.3 nM.

For `O=C(O)c1ccc(-c2ccc(NC(=O)[C@H]3CCCN3C(=O)Nc3ccc(C4CCC4)cc3)cc2)cn1` [Example 211, 5-[4-({1-[(4-cyclobutylphenyl)carbamoyl]-D-prolyl}amino)phenyl]pyridine-2-carboxylic acid], the IC50 was 7 nM.
